According to patent US20220211654A1, “MATERIALS AND METHODS FOR TREATING AGE-RELATED MACULAR DEGENERATION” (THE REGENTS OF THE UNIVERSITY OF CALIFORNIA, priority 2019, published 2022):
One block for each compound: values may come before it.

Tests used:
[1] = system: AMD ARPE-19 transmitochondrial cybrid cells; assay: CellLight Mitochondrial GFP staining and confocal microscopy; format: cell-based, human; conditions: fenofibrate 50 μM
Experimental: CellLight Mitochondrial GFP staining and Confocal microscopy: Staining with CellLight Mitochondrial GFP probe (Cat. #C10600, Thermo Fisher Scientific, MA, USA) and confocal microscopy were performed as described previously (74). Cells were plated in 4-well tissue culture chamber slides, stained with CellLight mtGFP for 24 hr and incubated overnight at 37° C. The cells were washed with 1×TBS (Tris buffered saline), fixed in paraformaldehyde and mounted in DAPI. Confocal z-stack images were captured using the LSM-700 Confocal microscope (Zeiss, Thornwood, N.Y., USA). Images were quantified using ZEN 2 lite software (Zeiss).
RPE cells were transduced with CellLight reagent which is a GFP-E1 alpha pyruvate dehydrogenase leader peptide construct with a mammalian promoter. This fluorescent baculoviral fusion construct provides precise targeting to mitochondria.

[2] = system: AMD ARPE-19 transmitochondrial cybrid cells; assay: Mitochondrial membrane potential (JC-1) assay; format: cell-based, human; conditions: AMD cybrids; fenofibrate 50 μM; compared to untreated
Experimental: Mitochondrial membrane potential (JC-1) assay: The JC-1 assay uses a unique cationic dye i.e., 5,5′,6,6′-tetrachloro-1,1′,3,3′-tetraethylbenzimidazolylcarbocyanine iodide, to detect loss of mitochondrial membrane potential. JC-1 1× reagent was prepared by diluting 100× JC-1 reagent in assay buffer to 1:100 dilutions. […] 1× JC-1 reagent was added to cells and incubated for 15 min at 37° C. JC-1 reagent in the wells was then replaced with DPBS and fluorescence was measured as follows: Red fluorescence (Live cells): Excitation 550 nm and Emission 600 nm; Green fluorescence (Apoptotic cells): Excitation 485 nm and Emission 535 nm. Ratio of Red/Green was used for analysis. Lower ratio corresponded to higher apoptotic/dead cell number.

[3] = system: AMD ARPE-19 transmitochondrial cybrid cells; assay: MitoSOX assay (mitochondrial superoxide); format: cell-based, human; conditions: AMD cybrids, fenofibrate 50 μM
Experimental: MitoSOX assay: The fluorogenic MitoSOX Red dye (Cat. #M36008, Invitrogen, Grand Island, N.Y., USA) is a live-cell permeant reagent that detects mitochondrial superoxide in cells. MitoSOX Red reagent oxidized by superoxide has red fluorescence that can be quantified. AMD cybrids were plated in 24-well tissue culture plates. Stock solution of 5 mM MitoSOX reagent was diluted with HBSS (Hank's balanced salt solution) buffer to obtain a 5 μM working solution. Cells were treated with 5 μM MitoSOX reagent and incubated for 10 min at 37° C. Cells were then washed with HBSS buffer, and fluorescence was measured at excitation/emission maxima of 510/580 nm.

[4] = system: AMD ARPE-19 transmitochondrial cybrid cells; assay: Cell viability assay (MTT assay); conditions: for cell viability, Mean ± SEM: AMD UN = 1
Experimental: All cybrids used in this study belonged to the ‘H’ mitochondrial DNA haplogroup. […] Stock solutions of 20 mM kaempferol and 10 mM telmisartan were prepared in DMSO and were diluted in culture media to obtain the following working concentrations: kaempferol at 5 μM, 10 μM, and 20 μM; telmisartan at 2.5 μM, 5 μM, and 10 μM. Cell viability assay (MTT assay): The numbers of viable cells were measured using the MTT (3-(4,5-dimethylthiazol-2-yl)-2,5-diphenyltetrazolium bromide) assay. […] Cells were incubated at 37° C. for 1 h, followed by addition of DMSO. Absorbance was measured at 570 nm and background absorbance measured at 630 nm. Normalized absorbance values were obtained by subtracting background absorbance from signal absorbance. The colorimetric signal obtained was proportional to the cell number.

Caspase-3 = assay: qRT-PCR gene expression of Caspase-3 in AMD RPE cybrid cells; format: cell-based, human; conditions: 72 hr; for Caspase-3 gene expression, Mean ± SEM: AMD UN = 1
Experimental: (§1) Quantitative Real-Time PCR: RNA extraction, cDNA synthesis, and qRT-PCR analysis were performed as described previously (73). QuantiTect Primer Assays were used to study the expression of Caspase-3 gene (Cat. #QT00023947, Qiagen, Germantown, Md.), BAX gene (Cat. #QT00031192, Qiagen), HIF1α gene (Cat. #QT00083664, Qiagen), CFH gene (Cat. #QT00001624, Qiagen), and SOD2 gene (Cat. #QT01008693, Qiagen). KiCqStart® SYBR® green primers were used to examine the expression of PGC-1a, NRF-1, NRF-2, PPAR-α, PPAR-γ, VEGF, IL-18, and IFNB1 genes (Cat. #kspq12012, Sigma, St. Louis, Mo.). Specific housekeeper genes used were HPRT1 (Cat. #QT00059066, Qiagen), ALAS variant 1 (Cat. #QT01160467, Qiagen), and HMBS (Cat. #QT00014462). TaqMan gene expression master mix (Cat. #4369016, Life Technologies) and TaqMan gene expression assays were used to examine the expression of the MT-RNR2 gene (Assay ID: Hs02596860_s1, Life Technologies), for which GAPDH (Assay ID: Hs02786624_g1, Life Technologies) was used as a housekeeper gene. Data analysis was performed using ΔΔCt method which was calculated by subtracting ΔCt of the AMD group from ΔCt of the normal group. ΔCt was the difference between the Cts (threshold cycles) of the target gene and Cts of the housekeeper gene (reference gene). Fold change was calculated using the following formula: Fold change=2^ΔΔct.

esterase = assay: fenofibrate to fenofibrate* conversion (first pass) and its block by esterase inhibitors; conditions: co-administered with fenofibrate
VEGF = assay: qRT-PCR gene expression of VEGF in AMD RPE cybrid cells; format: cell-based, human; conditions: 72 hr; for VEGF gene expression, Mean ± SEM: AMD UN = 1
Experimental: as §1

IL-18 = assay: qRT-PCR gene expression of IL-18 in AMD RPE cybrid cells; format: cell-based, human; conditions: 72 hr, AMD UN = 1
Experimental: as §1

SOD2 = assay: qRT-PCR gene expression of SOD2 in AMD RPE cybrid cells; format: cell-based, human; conditions: 72 hr, AMD UN = 1
Experimental: as §1

PGC-1α = assay: qRT-PCR gene expression of PGC-1α in AMD RPE cybrid cells; format: cell-based, human; conditions: 72 hr, AMD UN = 1
Experimental: as §1

[5] = only kaempferol 20 μM, compared to untreated AMD cybrids

Compound: CC(C)OC(=O)C(C)(C)Oc1ccc(C(=O)c2ccc(Cl)cc2)cc1 [fenofibrate]
mtGFP fluorescence intensity (mean±SEM) ([1]; AMD UN = 1): 2.73±0.39
increase in mtGFP fluorescence intensity ([1]; compared to untreated): 173%
increased mitochondrial membrane potential (JC-1 assay) [2]: 116%
mitochondrial superoxides, MitoSOX fluorescence (mean±SEM) ([3]; AMD UN = 1): 0.77±0.04
lower amount of mitochondrial superoxides (MitoSOX assay) ([3]; compared to untreated): 23%
cell viability, Mean ± SEM ([4]; 48 hr, fenofibrate 50 μM only): 1.33 ± 0.09
cell viability, Mean ± SEM ([4]; 72 hr, fenofibrate 50 μM only): 1.37 ± 0.07
higher cell viability ([4]; AMD cells, fenofibrate 50 μM, compared to untreated): 51%

block of conversion of fenofibrate to fenofibrate* (esterase): largely block conversion to fenofibrate*
Compound: O=c1c(O)c(-c2ccc(O)cc2)oc2cc(O)cc(O)c12 [kaempferol, 3,5,7-trihydroxy-2-(4-hydroxyphenyl)-4H-1-benzopyran-4-one]
Caspase-3 gene expression, Mean ± SEM (Caspase-3; kaempferol 20 μM only): 0.74 ± 0.045
Caspase-3 downregulation (Caspase-3; [5]): 26%
VEGF gene expression, Mean ± SEM (VEGF; kaempferol 20 μM only): 0.42 ± 0.16
VEGF downregulation (VEGF; [5]): 58%
IL-18 gene expression, Mean ± SEM (IL-18; kaempferol 20 μM only): 0.78 ± 0.13
SOD2 gene expression, Mean ± SEM (SOD2; kaempferol 20 μM only): 0.88 ± 0.22
cell viability, Mean ± SEM ([4]; 48 hr, kaempferol 20 μM only): 1.037 ± 0.1413
cell viability, Mean ± SEM ([4]; 72 hr, kaempferol 20 μM only): did not show any difference in cell viability
cell viability, Mean ± SEM ([4]; 72 hr, kaempferol 20 μM only, listed as kempferol): 1.259 ± 0.1060
PGC-1a gene expression, Mean ± SEM (PGC-1α; kaempferol 20 μM only): 1.82 ± 0.57

block of conversion of fenofibrate to fenofibrate* (esterase): largely block conversion to fenofibrate*
Compound: CCCc1nc2c(C)cc(-c3nc4ccccc4n3C)cc2n1Cc1ccc(-c2ccccc2C(=O)O)cc1 [telmisartan]
Caspase-3 gene expression, Mean ± SEM (Caspase-3; telmisartan 10 μM only): 0.86 ± 0.06
VEGF gene expression, Mean ± SEM (VEGF; telmisartan 10 μM only): 0.52 ± 0.19
IL-18 gene expression, Mean ± SEM (IL-18; telmisartan 10 μM only): 0.71 ± 0.25
SOD2 gene expression, Mean ± SEM (SOD2; telmisartan 10 μM only): 1.71 ± 0.46
cell viability, Mean ± SEM ([4]; 48 hr, telmisartan 10 μM only): 0.95 ± 0.11
cell viability, Mean ± SEM ([4]; 72 hr, telmisartan 10 μM only): 0.99 ± 0.09
PGC-1a gene expression, Mean ± SEM (PGC-1α; telmisartan 10 μM only): 1.40 ± 0.48
